Read-outs that look alike come from different tables or passages of the source.
Experiments:
[1] = target: T1, TPCK trypsin (Bos taurus, UniProt P00760); format: biochemical; conditions: for average fluorescence of wells with trypsin exposed to tubes with immobilized ligand: 12.5 ng trypsin per tube, 120 minutes at room temperature
T1 construct: purchased Thermo Scientific Pierce 23266
T1 sequence (P00760 24-246): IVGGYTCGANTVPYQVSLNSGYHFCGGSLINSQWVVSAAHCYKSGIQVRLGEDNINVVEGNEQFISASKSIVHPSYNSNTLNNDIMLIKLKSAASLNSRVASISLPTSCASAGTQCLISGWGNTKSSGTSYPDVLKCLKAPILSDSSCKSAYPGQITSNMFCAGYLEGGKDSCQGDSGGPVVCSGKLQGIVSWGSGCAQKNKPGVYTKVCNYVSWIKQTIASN
Experimental: (§1) Protease activity and the inhibition thereof were measured with a Fluorescent Protease Assay Kit (Thermo Scientific Pierce, catalog number 23266). TRIS-buffered saline (TBS, 25 mM Tris, 0.15 M NaCl, pH 7.2) was reconstituted from dry solids in the kit with deionized water. Trypsin stock solution was freshly prepared by dissolving TPCK trypsin from kit with 1 mL deionized water to make a 50 mg/mL solution. Aliquots of 10 μL were stored at −60° C. Individual aliquots of the stock solution were diluted in 1.0 mL of TBS (0.5 mg/mL), and 10 μL of this solution was further diluted in 10 mL of TBS (0.5 μg/mL). This solution was serially diluted 1:1 with TBS to create a trypsin solution of 62.5 ng/mL. The trypsin solution was kept in an ice bath until use. 200 μL of the diluted trypsin (12.5 ng) was added to each prepared polypropylene tube. The solution was aspirated and re-dispensed three times in each tube to assure complete mixing and contact of the solution with the derivatized internal walls of the tubes. A new disposable tip was used for each transfer. After incubation at room temperature for 120 minutes, 100 μL of the trypsin solution from each tube was placed into individual wells of a 96-well, black, flat-bottomed plate (Greiner Bio-one, catalog number 655076, Monroe, N.C.). FTC-casein—(casein protein modified by the addition of fluorescein isothiocyanate, a part of the Fluorescent Protease Assay Kit) solution in TBS buffer was freshly prepared and 100 μL of this solution was added to each well and mixed via aspiration and dispense. The plate was incubated at room temperature for 95 minutes. The fluorescence of the samples in the 96-well plate was measured on a SpectraFluor Plus fluorescence spectrometer (Tecan, Mannedorf, Switzerland) 5 minutes after the solution was added and additionally after 10, 20, 40, 60 and 95 minutes. Increased fluorescence is indicative of trypsin-mediated digestion of the added FTC-casein solution via the decrease of FRET-based fluorescence quenching that exists in the intact protein.

[2] = target: T1, TPCK trypsin; format: biochemical; conditions: for average fluorescence of wells with trypsin exposed to tubes with immobilized ligand: 12.5 ng trypsin per tube, 120 minutes at room temperature; remark: listed apart in the source
Experimental: as §1, with “solution. […]” for “solution.”, “FTC-casein—(casein protein modified by the addition of fluorescein isothiocyanate, a part of the Fluorescent Protease Assay Kit) solution in TBS buffer was freshly prepared and 100 μL of this solution was added to each well and mixed via aspiration and dispense.” left out, “The fluorescence of the samples in the 96-well plate was measured on a SpectraFluor Plus fluorescence spectrometer (Tecan, Mannedorf, Switzerland) 5 minutes after the solution was added and additionally after 10, 20, 40, 60 and 95 minutes.” left out

[3] = Example B, ligand immobilized on tube wall, background 5382 RFU
[4] = Example A, ligand immobilized on tube wall, background 5382 RFU
[5] = 0.1 mM TLCK in the well (not immobilized), after 20 minutes, background 5382 RFU

NCCCO [AP Ligand, 3-amino-1-propanol]
average fluorescence of wells with trypsin exposed to tubes with immobilized ligand [1, 3]: 20847 RFU | average fluorescence of wells with trypsin exposed to tubes with immobilized ligand [2, 4]: 21289 RFU

Cc1ccc(S(=O)(=O)N[C@@H](CCCCN)C(=O)CCl)cc1.Cl [TLCK Ligand, N-alpha-tosyl-L-lysine chloromethyl ketone hydrochloride]
fluorescence of wells that contained FTC-casein, trypsin and inhibitor [1, 5]: 6841 RFU | average fluorescence of wells with trypsin exposed to tubes with immobilized ligand [1, 3]: 13386 RFU | inhibition of trypsin activity ([1]; Example B, ligand immobilized on tube wall, trypsin exposed 120 minutes at room temperature): 48% | fluorescence of wells that contained FTC-casein, trypsin and inhibitor [2, 5]: 6841 RFU | average fluorescence of wells with trypsin exposed to tubes with immobilized ligand [2, 4]: 15521 RFU | inhibition of trypsin activity ([2]; Example A, ligand immobilized on tube wall, trypsin exposed 120 minutes at room temperature): 35%

Source: patent publication US12440833B2, “Sample containers adapted for acoustic ejections and sample preservation and methods thereof” (priority 2011, dated 2025)
